Results reported in patent US10744233B2, “Crystallization inhibitor compositions for implantable urological devices” (Innovative Surface Technologies, Inc., priority 2016, dated 2020).

Columns and labels:
[1] = Encrustation assay in artificial urine without bacteria; settings: two separate experiments (Table 3)
Experimental: Artificial urine solutions contained either:
The coatings were analyzed for encrustation.
In addition, both the Wet 1 and Dry POC coatings were analyzed for encrustation using the same procedure described previously.

[2] = Osteopontin elution assay (ELISA); type: physicochemical; settings: 1X PBS, 37° C.
Experimental: Osteopontin Elution Assay
To determine the amount of osteopontin released, coated Parylene™ coated discs were placed in 2 mL of 1×PBS for up to 30 days. The buffer was exchanged at approximately 30 minutes, 1 hour, 1 day, 5 days, 10 days, 15 days, and 30 days. Eluted samples were refrigerated until assaying. Osteopontin was quantified using an Osteopontin ELISA kit (R &D Systems, Mpls, MN) following the kit's instructions.
Sample discs coated with either osteopontin loaded PLGA coatings or empty PLGA coatings were placed in 1×PBS for elution over 30 days at 37° C., with the elution buffer exchanged at days 1, 5, 10, 15, and 30.
Total release per disc was 0.3 ng osteopontin released over 30 days (6-mg PLGA coating/3 ng osteopontin loading per disc).

Molecule	Reduction of encrustation compared to control empty PLGA [1]	Reduction of encrustation compared to uncoated [1]	Osteopontin release period ([2]; 30 days)	Total osteopontin release per disc ([2]; over 30 days, 6-mg PLGA coating/3 ng osteopontin loading per disc) [ng]
O=C(O)CC(O)(CC(=O)O)C(=O)O [citric acid]	26-48%	up to 66%	–	–
osteopontin: human osteopontin (R&D Systems), sialoprotein; in b151 it is released from the osteopontin-loaded PLGA coating	–	–	released over the entire 30-day period	0.3
